Source: ChEMBL document CHEMBL1201862, “PubChem BioAssay data set” (2004)
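1) Cells in 96-well plates. 2) Compound, 48 h, 5 concentrations. 3) Linear interpolation between surrounding doses. 4) Unreached endpoint = highest concentration. Abbreviation: GI50, concentration required for 50% inhibition of growth.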 The source made the active and inactive calls. Rule as the data show it: active = GI50 up to about 1.1 µM and inactive = higher.

Tests used:
Assay in all cases: NCI tumour cell line growth inhibition, 48 h
[1] = test system: HCC 2998
[2] = test system: LXFL 529
[3] = test system: SK-MEL-28
[4] = test system: M19-MEL
[5] = test system: KM-20L2
[6] = test system: RXF 631
[7] = test system: HL-60
[8] = test system: RXF 393
[9] = test system: HT-29
[10] = test system: TK-10
[11] = test system: NCI-H460
[12] = test system: HCT-15
[13] = test system: Malme-3M
[14] = test system: SF-268
[15] = test system: EKVX
[16] = test system: SK-MEL-2
[17] = test system: OVCAR-3
[18] = test system: U-251
[19] = test system: SN12C
[20] = test system: A498
[21] = test system: NCI-H23
[22] = test system: 786-0
[23] = test system: SNB-19
[24] = test system: DLD-1
[25] = test system: COLO 205
[26] = test system: XF498
[27] = test system: NCI-H226
[28] = test system: KM12
[29] = test system: UACC-257
[30] = test system: UO-31
[31] = test system: M14
[32] = test system: DMS-273
[33] = test system: MOLT-4
[34] = test system: SNB-75
[35] = test system: RPMI-8226
[36] = test system: OVCAR-4
[37] = test system: A549
[38] = test system: IGROV-1
[39] = test system: ACHN
[40] = test system: CAKI-1
[41] = test system: HOP-92
[42] = test system: SK-OV-3
[43] = test system: UACC-62
[44] = test system: SK-MEL-5
[45] = test system: LOX IMVI
[46] = test system: SW-620
[47] = test system: NCI-H522
[48] = test system: HOP-18
[49] = test system: OVCAR-8
[50] = test system: SF-295
[51] = test system: SF-539
[52] = test system: K562
[53] = test system: OVCAR-5
[54] = test system: CCRF-CEM
[55] = test system: SNB-78
[56] = test system: HCT-116
[57] = test system: DMS-114
[58] = test system: HOP-62

O=C(O)CCCNS(=O)(=O)c1ccc2ccccc2c1
GI50 [1]: > 100 µM (inactive)
GI50 [2]: > 100 µM (inactive)
GI50 [3]: > 100 µM (inactive)
GI50 [4]: > 100 µM (inactive)
GI50 [5]: > 100 µM (inactive)
GI50 [6]: > 100 µM (inactive)
GI50 [7]: > 100 µM (inactive)
GI50 [8]: > 100 µM (inactive)
GI50 [9]: > 100 µM (inactive)
GI50 [10]: > 100 µM (inactive)
GI50 [11]: > 100 µM (inactive)
GI50 [12]: > 100 µM
GI50 [13]: > 100 µM (inactive)
GI50 [14]: > 100 µM (inactive)
GI50 [15]: > 100 µM (inactive)
GI50 [16]: > 100 µM (inactive)
GI50 [17]: > 100 µM (inactive)
GI50 [18]: > 100 µM (inactive)
GI50 [19]: > 100 µM (inactive)
GI50 [20]: > 100 µM (inactive)
GI50 [21]: > 100 µM (inactive)
GI50 [22]: > 100 µM (inactive)
GI50 [23]: > 100 µM (inactive)
GI50 [24]: > 100 µM (inactive)
GI50 [25]: > 100 µM (inactive)
GI50 [26]: > 100 µM (inactive)
GI50 [27]: > 100 µM (inactive)
GI50 [28]: > 100 µM (inactive)
GI50 [29]: > 100 µM (inactive)
GI50 [30]: > 100 µM (inactive)
GI50 [31]: > 100 µM (inactive)
GI50 [32]: > 100 µM (inactive)
GI50 [33]: > 100 µM (inactive)
GI50 [34]: > 100 µM (inactive)
GI50 [35]: > 100 µM (inactive)
GI50 [36]: > 100 µM (inactive)
GI50 [37]: > 100 µM (inactive)
GI50 [38]: > 100 µM (inactive)
GI50 [39]: > 100 µM (inactive)
GI50 [40]: > 100 µM (inactive)
GI50 [41]: 97.7 µM (inactive)
GI50 [42]: > 100 µM (inactive)
GI50 [43]: > 100 µM (inactive)
GI50 [44]: > 100 µM (inactive)
GI50 [45]: > 100 µM (inactive)
GI50 [46]: > 100 µM (inactive)
GI50 [47]: > 100 µM (inactive)
GI50 [48]: > 100 µM (inactive)
GI50 [49]: > 100 µM (inactive)
GI50 [50]: > 100 µM (inactive)
GI50 [51]: > 100 µM (inactive)
GI50 [52]: > 100 µM (inactive)
GI50 [53]: > 100 µM (inactive)
GI50 [54]: > 100 µM (inactive)

CC(=O)OCCOCNC(=S)N/N=C/c1ccc([N+](=O)[O-])o1
GI50 [1]: 40.7 µM (inactive)
GI50 [2]: 77.6 µM (inactive)
GI50 [3]: 98.4 µM (inactive)
GI50 [4]: 15.7 µM (inactive)
GI50 [5]: 26.4 µM (inactive)
GI50 [6]: 58.7 µM (inactive)
GI50 [7]: 11.6 µM (inactive)
GI50 [8]: > 100 µM (inactive)
GI50 [9]: 30.3 µM (inactive)
GI50 [10]: > 100 µM (inactive)
GI50 [11]: 28.7 µM (inactive)
GI50 [12]: 52.6 µM
GI50 [13]: 94.8 µM (inactive)
GI50 [14]: 29.5 µM (inactive)
GI50 [15]: > 100 µM (inactive)
GI50 [16]: 44.1 µM (inactive)
GI50 [17]: 33.6 µM (inactive)
GI50 [18]: 83.9 µM (inactive)
GI50 [19]: 74.5 µM (inactive)
GI50 [20]: > 100 µM (inactive)
GI50 [21]: 26.7 µM (inactive)
GI50 [22]: > 100 µM (inactive)
GI50 [55]: > 100 µM (inactive)
GI50 [23]: > 100 µM (inactive)
GI50 [24]: 53.1 µM (inactive)
GI50 [25]: 15 µM (inactive)
GI50 [26]: > 100 µM (inactive)
GI50 [27]: 98.4 µM (inactive)
GI50 [28]: 57 µM (inactive)
GI50 [29]: 34.4 µM (inactive)
GI50 [30]: > 100 µM (inactive)
GI50 [31]: 36.6 µM (inactive)
GI50 [32]: 37.9 µM (inactive)
GI50 [34]: > 100 µM (inactive)
GI50 [56]: 40 µM (inactive)
GI50 [36]: > 100 µM (inactive)
GI50 [37]: 63.5 µM (inactive)
GI50 [57]: 17.1 µM (inactive)
GI50 [38]: > 100 µM (inactive)
GI50 [39]: 60.5 µM (inactive)
GI50 [42]: > 100 µM (inactive)
GI50 [43]: 18.5 µM (inactive)
GI50 [44]: 28.7 µM (inactive)
GI50 [45]: 31.6 µM (inactive)
GI50 [58]: > 100 µM (inactive)
GI50 [46]: 34.5 µM (inactive)
GI50 [47]: 64.4 µM (inactive)
GI50 [48]: > 100 µM (inactive)
GI50 [49]: 77.3 µM (inactive)
GI50 [50]: 40.6 µM (inactive)
GI50 [51]: 43.9 µM (inactive)
GI50 [52]: 37.1 µM (inactive)
GI50 [53]: > 100 µM (inactive)
GI50 [54]: 23 µM (inactive)
